What follows are compounds tested against KRas G12C (Homo sapiens, UniProt P01116, G12C) (assay: Cellular inhibition of KRas G12C measured by Phospho-ERK in NCI-H358 cells). Conditions: pERK(Thr202/Tyr204) normalized with GAPDH, NCI-H358 cells, 3 hours; read-out: IC50.
Sequence of KRas G12C (P01116 1-188 isoform P01116-2 G12C): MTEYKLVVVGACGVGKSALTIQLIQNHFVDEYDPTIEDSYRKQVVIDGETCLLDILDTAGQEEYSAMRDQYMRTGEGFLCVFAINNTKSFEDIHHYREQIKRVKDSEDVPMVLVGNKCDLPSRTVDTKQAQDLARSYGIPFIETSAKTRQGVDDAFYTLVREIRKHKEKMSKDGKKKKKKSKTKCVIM
Format: cell-based
Summary of the method: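 Following 8-12 h attachment, NCI-H358 cells got serially diluted compound (0.5% DMSO) for 3 hours. Cells were then fixed, permeabilized with cold methanol, and stained for pERK(Thr202/Tyr204) and GAPDH. Ratios were converted to percent of DMSO control, with IC50 obtained by four-parameter regression.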
For `C=CC(=O)N1CCN(c2nc(O[C@H](C)CN(C)C)nc3c2CCN(c2cc(O)cc4ccccc24)C3)CC1CC#N` (stereo partly drawn) [Example 150, 2-(1-acryloyl-4-(2-(((R)-1-(dimethylamino)propan-2-yl)oxy)-7-(3-hydroxynaphthalen-1-yl)-5,6,7,8-tetrahydropyrido[3,4-d]pyrimidin-4-yl)piperazin-2-yl)acetonitrile], the IC50 was 0.0001 to 1 µM. With `C=CC(=O)N1CCN(c2nc(O[C@H](C)CN(C)C)nc3c2CCN(c2cccc4ccccc24)C3)CC1CC#N` (stereo partly drawn) [Example 151, 2-(1-acryloyl-4-(2-(((R)-1-(dimethylamino)propan-2-yl)oxy)-7-(naphthalen-1-yl)-5,6,7,8-tetrahydropyrido[3,4-d]pyrimidin-4-yl)piperazin-2-yl)acetonitrile] the IC50 was > 1 µM. In the case of `C=CC(=O)N1CCN(c2nc(O[C@H](C)CN(C)C)nc3c2CCN(c2c(C)ccc4[nH]ncc24)C3)CC1CC#N` (stereo partly drawn) [Example 152, 2-[4-[2-[(1R)-2-(dimethylamino)-1-methyl-ethoxy]-7-(5-methyl-1H-indazol-4-yl)-6,8-dihydro-5H-pyrido[3,4-d]pyrimidin-4-yl]-1-prop-2-enoyl-piperazin-2-yl]acetonitrile], the IC50 is reported as 0.0001 to 1 µM. For `C=CC(=O)N1CCN(c2nc(OCCCN3C[C@@H]4C[C@H]3CO4)nc3c2CCN(c2cc(O)cc4ccccc24)C3)CC1CC#N` (stereo partly drawn) [Example 153, 2-[4-[7-(3-hydroxy-1-naphthyl)-2-[3-[(1S,4S)-2-oxa-5-azabicyclo[2.2.1]heptan-5-yl]propoxy]-6,8-dihydro-5H-pyrido[3,4-d]pyrimidin-4-yl]-1-prop-2-enoyl-piperazin-2-yl]acetonitrile], the IC50 was 0.0001 to 1 µM. For `C=CC(=O)N1CCN(c2nc(OCCCN3C[C@@H]4C[C@H]3CO4)nc3c2CCN(c2cccc4ccccc24)C3)CC1CC#N` (stereo partly drawn) [Example 154, 2-[4-[7-(1-naphthyl)-2-[3-[(1S,4S)-2-oxa-5-azabicyclo[2.2.1]heptan-5-yl]propoxy]-6,8-dihydro-5H-pyrido[3,4-d]pyrimidin-4-yl]-1-prop-2-enoyl-piperazin-2-yl] acetonitrile], the IC50 was 0.0001 to 1 µM. `C=CC(=O)N1CCN(c2nc(OC[C@@H]3CCCN3C)nc3c2CCN(c2c(C(F)(F)F)ccc4[nH]ncc24)C3)CC1` [Example 156, (S)-1-(4-(2-((1-methylpyrrolidin-2-yl)methoxy)-7-(5-(trifluoromethyl)-1H-indazol-4-yl)-5,6,7,8-tetrahydropyrido[3,4-d]pyrimidin-4-yl)piperazin-1-yl)prop-2-en-1-one] showed an IC50 of 0.0001 to 1 µM. With `C=CC(=O)N1CCN(c2nc(OC[C@@H]3CCCN3C)nc3c2CCN(c2c(OC)ccc4[nH]ncc24)C3)CC1` [Example 157] the IC50 was > 1 µM. With `C=CC(=O)N1CCN(c2nc(OC[C@@H]3CCCN3C)nc3c2CCN(c2ccccc2C(F)(F)F)C3)CC1` [Example 159, (S)-1-(4-(2-((1-methylpyrrolidin-2-yl)methoxy)-7-(2-(trifluoromethyl)phenyl)-5,6,7,8-tetrahydropyrido[3,4-d]pyrimidin-4-yl)piperazin-1-yl)prop-2-en-1-one] the IC50 was > 1 µM. For `C=CC(=O)N1CCN(c2nc(OCCCN3CCCCC3)nc3c2CCN(c2c(C)ccc4[nH]ncc24)C3)CC1` [Example 160, 1-(4-(7-(5-methyl-1H-indazol-4-yl)-2-(3-(piperidin-1-yl)propoxy)-5,6,7,8-tetrahydropyrido[3,4-d]pyrimidin-4-yl)piperazin-1-yl)prop-2-en-1-one], the IC50 was > 1 µM. `C=CC(=O)N1CCN(c2nc(OCC3CCN(C)C3)nc3c2CCN(c2c(C)ccc4[nH]ncc24)C3)CC1` (centres unmarked) [Example 161, 1-[4-[7-(5-methyl-1H-indazol-4-yl)-2-[(1-methylpyrrolidin-3-yl)methoxy]-6,8-dihydro-5H-pyrido[3,4-d]pyrimidin-4-yl]piperazin-1-yl]prop-2-en-1-one] was tested, and the IC50 was > 1 µM. In the case of `C=CC(=O)N1CCN(c2nc(O[C@H](C)CN(C)C)nc3c2CCN(c2c(C)ccc4[nH]ncc24)C3)CC1` [Example 162, 1-[4-[2-[(1R)-2-(dimethylamino)-1-methyl-ethoxy]-7-(5-methyl-1H-indazol-4-yl)-6,8-dihydro-5H-pyrido[3,4-d]pyrimidin-4-yl]piperazin-1-yl]prop-2-en-1-one], the IC50 is reported as > 1 µM.

Reference: patent publication US10689377B2 (Mirati Therapeutics, Inc., priority 2017, dated 2020)
